Laboratory results reported in the NIST ThermoML archive (doi:10.1021/je0342163).

Experiment: wn = mass fraction of the nth substance listed

CC(F)(F)F [1,1,1-trifluoroethane] + FCC(F)(F)F
Settings | surface tension liquid-gas [mN/m]
256.91 K, w1 = 0.7511 | 10.69
257.03 K, w1 = 0.263 | 12.6
257.14 K, w1 = 0.5656 | 11.49
258.79 K, w1 = 0.7508 | 10.37
258.87 K, w1 = 0.2627 | 12.39
260.95 K, w1 = 0.565 | 10.86
261 K, w1 = 0.7503 | 10.13
262.96 K, w1 = 0.75 | 9.8
263.05 K, w1 = 0.5646 | 10.49
264.97 K, w1 = 0.2618 | 11.46
264.97 K, w1 = 0.7496 | 9.615
265.07 K, w1 = 0.5643 | 10.39
266.84 K, w1 = 0.564 | 10.02
267.09 K, w1 = 0.7491 | 9.245
268.62 K, w1 = 0.7488 | 9.17
268.83 K, w1 = 0.2611 | 10.94
268.92 K, w1 = 0.5636 | 9.81
270.52 K, w1 = 0.5633 | 9.46
270.6 K, w1 = 0.7484 | 8.84
271.15 K, w1 = 0.2607 | 10.62
273.07 K, w1 = 0.5628 | 9.14
273.2 K, w1 = 0.2604 | 10.39
273.23 K, w1 = 0.7478 | 8.49
274.99 K, w1 = 0.5625 | 8.825
275.4 K, w1 = 0.7473 | 8.26
275.43 K, w1 = 0.26 | 10.06
277.04 K, w1 = 0.2597 | 9.845
277.27 K, w1 = 0.562 | 8.575
278.99 K, w1 = 0.5617 | 8.35
279.15 K, w1 = 0.2593 | 9.5
279.35 K, w1 = 0.7463 | 7.755
281.43 K, w1 = 0.2589 | 9.23
281.48 K, w1 = 0.5612 | 8
281.54 K, w1 = 0.7458 | 7.46
282.89 K, w1 = 0.2586 | 9.01
283.35 K, w1 = 0.5608 | 7.755
283.39 K, w1 = 0.7453 | 7.25
285.2 K, w1 = 0.5604 | 7.465
285.24 K, w1 = 0.2581 | 8.695
285.45 K, w1 = 0.7448 | 6.985
287.35 K, w1 = 0.5599 | 7.295
287.39 K, w1 = 0.7443 | 6.725
287.4 K, w1 = 0.2577 | 8.415
289.05 K, w1 = 0.7438 | 6.5
289.29 K, w1 = 0.5595 | 7.115
289.31 K, w1 = 0.2573 | 8.23
291.17 K, w1 = 0.7432 | 6.23
291.2 K, w1 = 0.5591 | 6.82
291.37 K, w1 = 0.2569 | 8.03
293.21 K, w1 = 0.2565 | 7.725
293.45 K, w1 = 0.2564 | 7.57
293.49 K, w1 = 0.5585 | 6.47
293.71 K, w1 = 0.7425 | 5.82
295.16 K, w1 = 0.5582 | 6.13
295.56 K, w1 = 0.7419 | 5.58
295.58 K, w1 = 0.256 | 7.285
297.38 K, w1 = 0.2556 | 7.06
297.49 K, w1 = 0.7413 | 5.375
297.52 K, w1 = 0.5576 | 5.875
299.41 K, w1 = 0.7407 | 5.14
299.51 K, w1 = 0.5571 | 5.72
299.53 K, w1 = 0.2552 | 6.855
301.41 K, w1 = 0.7401 | 4.89
301.53 K, w1 = 0.2547 | 6.585
302.95 K, w1 = 0.5563 | 5.335
303.65 K, w1 = 0.7394 | 4.63
303.66 K, w1 = 0.2542 | 6.325
305.21 K, w1 = 0.5557 | 5.055
305.38 K, w1 = 0.7388 | 4.425
305.56 K, w1 = 0.2538 | 6.13
307.4 K, w1 = 0.5552 | 4.755
307.46 K, w1 = 0.2534 | 5.835
307.74 K, w1 = 0.738 | 4.17
309.3 K, w1 = 0.5547 | 4.56
309.6 K, w1 = 0.2529 | 5.585
309.65 K, w1 = 0.7373 | 3.97
311.25 K, w1 = 0.2525 | 5.385
311.41 K, w1 = 0.5541 | 4.29
311.44 K, w1 = 0.7367 | 3.755
313.47 K, w1 = 0.736 | 3.5
313.55 K, w1 = 0.252 | 5.095
313.61 K, w1 = 0.5536 | 4.03
315.3 K, w1 = 0.5531 | 3.825
315.54 K, w1 = 0.7352 | 3.3
315.59 K, w1 = 0.2515 | 4.85
317.36 K, w1 = 0.2511 | 4.66
317.41 K, w1 = 0.5525 | 3.605
317.57 K, w1 = 0.7345 | 3.11
319.33 K, w1 = 0.552 | 3.415
319.39 K, w1 = 0.7338 | 2.875
319.66 K, w1 = 0.2506 | 4.41
321.23 K, w1 = 0.7331 | 2.685
321.33 K, w1 = 0.5515 | 3.18
322.01 K, w1 = 0.25 | 4.12
323.26 K, w1 = 0.2497 | 4
323.33 K, w1 = 0.7323 | 2.44
323.42 K, w1 = 0.5509 | 2.925
325.17 K, w1 = 0.5505 | 2.75
325.28 K, w1 = 0.7315 | 2.25
325.69 K, w1 = 0.2492 | 3.67
327.33 K, w1 = 0.2488 | 3.545
327.36 K, w1 = 0.7306 | 2.065
327.38 K, w1 = 0.5498 | 2.53
329.42 K, w1 = 0.7298 | 1.81
329.44 K, w1 = 0.5493 | 2.32
